Consider three compounds from publication PMC10299588, “Bromotyrosine-Derived Metabolites from a Marine Sponge Inhibit Pseudomonas aeruginosa Biofilms” (International Journal of Molecular Sciences, 2023).

Series [1] deals with planktonic P. aeruginosa PAO1. Description: Minimum inhibitory concentration (MIC) determination. It is filed as cell-based, Pseudomonas aeruginosa. The settings on record: for antimicrobial activity against P. aeruginosa PAO1: up to the highest concentrations applied. The procedure: The minimum inhibitory concentration (MIC) of compounds and antibiotics were performed as previously described, with minor modification. […] Three antibiotics, including tobramycin, ciprofloxacin, and meropenem, were dissolved in water and filter sterilized. Ten microliters of two-fold serially diluted antibiotics were transferred to a 96-well Costar plate (Corning Inc., Corning, MA, USA) followed by the addition of 90 µL of diluted cultures. After an 18-h incubation at 37 °C in the static condition, optical density OD600 was monitored using a Synergy 2 microplate reader (BioTek, Winooski, VT, USA). […] The MIC was determined as the lowest concentrations of antibiotics that inhibit complete bacterial growth compared to growth control.

A further series has as its system planktonic PAO1. In words: Checkerboard assay with antibiotics. It is filed as cell-based, Pseudomonas aeruginosa. Set-up: MIC of ciprofloxacin reduced to: unit not given beside the values. The settings on record: for synergy with ciprofloxacin: planktonic PAO1; for MIC of ciprofloxacin reduced to: in combination with compound. The procedure:
The synergistic activity of compounds with antibiotics, including tobramycin, ciprofloxacin and meropenem, was investigated by a checkerboard dilution assay. Briefly, mid-log cultures of P. aeruginosa were diluted 1:1250 before being added to the plates. Next, 90 µL aliquots of diluted cells were added to a 96-well Costar (Corning) plate containing either 10 µL of compounds and/or 10 µL of antibiotics. Compounds and antibiotics were tested at 11 and 7 concentrations, respectively. The first row contained antibiotics alone, while the first column contained compounds alone, and the remaining columns were for combinations.

Series [2] deals with efflux pumps of P. aeruginosa. In words: Ethidium bromide efflux assay. It is filed as cell-based, Pseudomonas aeruginosa. Conditions: for efflux pump inhibition (intracellular EtBr accumulation): 60 min, compound 3 at 53.1 and 106.2 µg/mL. An excerpt:
We performed the ethidium bromide (EtBr) efflux assay to assess the ability of test compounds to inhibit efflux pumps of P. aeruginosa. The DNA-intercalating dye EtBr is a common substrate of the resistance-nodulation-cell division (RND) family. The dye only fluoresces when bound to DNA in the cytoplasm. The disruption of efflux pumps such as the RND pump AcrB enhances the accumulation of the substrate within the cells over time until it reaches a steady state. (Figure 5C).
To investigate the efflux pump-inhibiting activity of test compounds on wild-type PAO1, an efflux assay using ethidium bromide (EtBr) as a substrate was performed as previously described. An overnight culture of PAO1 in LB broth was incubated in a shaker at 37 °C until it reached an OD600 of 0.5. The bacterial cells were washed with phosphate buffered saline (PBS) and centrifuged, and the pellet was resuspended in PBS. Test compounds, 5 µL, were added to the flat-bottomed, black 96-well-plate followed by addition of 90 µL of the bacterial suspension. EtBr at a non-toxic concentration (5 µL, 2 µg/mL) was added before the plates were read. The fluorescence reading was recorded at an excitation of 530 nm and emission of 590 nm every min for 60 min using a BioTek Synergy H1 Hybrid microplate reader. Carbonyl cyanide m-chlorophenyl hydrazone (CCCP), a chemical inhibitor of efflux pumps, was used as the positive control, and DMSO (1–2%) was used as the vehicle control, as compounds were dissolved in DMSO. Untreated cells were used as the negative control.

For the next series, the system named is PAO1 biofilms. In words: Fluorescence microscopy of biofilms (SYTO9/propidium iodide). It is filed as cell-based, Pseudomonas aeruginosa. The procedure:
(§1) Biofilms of wild-type PAO1 and isogenic biofilm matrix component mutants were treated with ianthelliformisamines or ciprofloxacin alone and the combinations. Their biofilms were simultaneously stained with SYTO9 (green) and propidium iodide (red). Cells with intact membranes were stained green, while cells with compromised membranes were stained red.
(§2) For biofilm bacteria imaging, bacteria were cultured, treated with test compounds, and washed, as previously mentioned in the biofilm inhibition assay. The biofilm bacteria were stained using a LIVE/DEAD BacLight bacterial viability kit (Molecular Probes, Inc., Eugene, OR, USA), which consists of SYTO9 (green; staining cells with intact membrane) and propidium iodide (red; staining cells with compromised membrane). Images were captured using a high-content imaging system Operetta CLS (Perkin Elmer, Waltham, MA, USA) with a 60× water-immersion objective.

For another series, the system named is PAO1ΔpslA biofilms. Described as above. It is filed as cell-based, Pseudomonas aeruginosa. The procedure: as §1, §2
The next series deals with PDO300 biofilms. The series is described as above. Conditions: for biofilm after treatment: compound alone. It is filed as cell-based, Pseudomonas aeruginosa. The procedure:
as §1, §2

A short description of series [3]: Stability in liver microsomes. It is filed as in vitro ADME, human. The settings on record: for half-life at 1 µM: both sexes, human, liver microsomes. The procedure: The metabolic assays were performed based on a previously described method. […] The final organic (ACN) concentration in the incubation tubes was 1%. […] Samples (50 μL) were removed at t = 0 (immediately after reaction start), 5, 10, 20, 30, and 60 min. Samples were added to microcentrifuge tubes containing 150 μL of ice-cold acetonitrile containing internal standard (clotrimazole; for […] = 10.0 ng/mL + 0.5% (v/v) formic acid; for 1 and 2 = 2.0 ng/mL + 0.5% (v/v) formic acid; for VPL = 20.0 ng/mL + 0.1% (v/v) formic acid). Tubes were centrifuged (13,000× g, 5 min), and ~135 μL of supernatant transferred to polypropylene 96-well plates for analysis.
Chromatographic separation was achieved using a biphenyl column [Kinetix, 100 mm × 4.6 mm, 2.6 μm; Phenomenex (Sydney, Australia)], coupled with a gradient elution with mobile phases containing acetonitrile/H2O/0.5% formic acid. Analysis was conducted in positive ion multiple reaction monitoring (MRM) mode with argon as the collision gas. Optimum MS/MS conditions were established prior to incubations by direct infusion of individual solutions of 1, 2, and 3 into the LC-MS/MS. To ensure adequate sensitivity of analysis, multiple mass transitions were summed for all three test compounds.
LN % remaining vs. time data for each data set were fitted to an exponential decay function to determine the first-order rate constant (k) for substrate depletion. For Equations (5)–(7), scaling parameters used were described elsewhere.
In general terms: Microsomes from liver hold many membrane-bound enzymes, among them those of drug oxidation.

[4] abbreviates: compound alone (1 86.2, 2 69.1, 3 53.1/106.2 µg/mL).
The mark [5] stands for this setting: in combination with ciprofloxacin.

“Also recorded” adds a separate entry of the source. Read-outs that look alike come from different tables or passages of the source.

Broadly, the MIC is the lowest concentration that inhibits growth of the organism. Regarding `COc1c(Br)cc(/C=C/C(=O)NCCCNCCCCNCCCNC(=O)/C=C/c2cc(Br)c(OC)c(Br)c2)cc1Br` [Compound 3, ianthelliformisamine C], the minimum inhibitory concentration (MIC) in series [1] (Pseudomonas aeruginosa, planktonic (free-living) PAO1, LB medium, 18 h, 37 °C) worked out at 53.1 mg/L. Further, the synergy with ciprofloxacin entry in the series on planktonic PAO1 is recorded as “limited synergy”. Also, the “level of intracellular EtBr accumulation relative to CCCP” value in series [2] is on record as “greater than that mediated by reference compound CCCP”. For the same compound, the “efflux pump inhibition (intracellular EtBr accumulation)” value (“efflux pump inhibition” below) in series [2] is on record as “is an efflux pump inhibitor”; in series [2] (listed as ianthelliformisamine C), “inhibited the efflux pump”. Also, in the series with PAO1 biofilms, the “interaction with ciprofloxacin on biofilms” value (from here on “interaction”) is given as “antagonistically”. Moreover, the biofilm after treatment result in the series with PAO1 biofilms (setting [4]) is reported as “slightly reduced”; with PAO1ΔpslA biofilms (alone) it was “completely dispersed the biofilm”; with PDO300 biofilms, “completely eradicated”. In series [3], the metabolic stability entry was “metabolically stable”.
On to `COc1c(Br)cc(/C=C/C(=O)NCCCNCCCCNCCCN)cc1Br` [Compound 1, ianthelliformisamine A], for which, in series [1], the “antimicrobial activity against P. aeruginosa PAO1” value is reported as “no antimicrobial activity”. In the series with planktonic PAO1, the “enhancement of the activity of tobramycin or meropenem” value was “did not enhance”, the “MIC of ciprofloxacin reduced to” value is 1/3 and the synergy with ciprofloxacin entry was “worked synergistically”. Also, the “efflux pump inhibition” value in series [2] is “comparable EtBr accumulation with untreated bacteria”. Further, the “interaction” value in the series on PAO1 biofilms is “synergistically”. In the series with PAO1 biofilms (compound 86.2 µg/mL + ciprofloxacin 1/3 MIC), the biofilm after treatment entry is on record as “Complete biofilm inhibition”. Further, in the series on PAO1 biofilms (setting [4]), the biofilm after treatment result was “remained unaffected”. For the same compound, the biofilm after treatment entry in the series on PAO1ΔpslA biofilms (setting [5]) is on record as “eradicated”. For the same compound, in the series on PDO300 biofilms, the “effect in combination with ciprofloxacin” value is on record as “synergistic effects” and the biofilm after treatment result is “slightly reduced”. Also, in series [3], the metabolic stability result is given as “substantial instability; also recorded: significant instability”.
Broadly, the half-life is how long it takes for the measured level to halve. Take `COc1c(Br)cc(/C=C/C(=O)NCCCNCCCCN)cc1Br` [Compound 2, ianthelliformisamine B]: in series [1], the “antimicrobial activity against P. aeruginosa PAO1” value is “no antimicrobial activity”. In addition, in the series with planktonic PAO1, the “enhancement of the activity of tobramycin or meropenem” value was “did not enhance”, the “MIC of ciprofloxacin reduced to” value was 1/4 and the synergy with ciprofloxacin entry is on record as “worked synergistically”. In addition, the “efflux pump inhibition” value in series [2] is given as “comparable EtBr accumulation with untreated bacteria”. In addition, the “interaction” value with PAO1 biofilms is given as “no effect”. The biofilm after treatment result in the series with PAO1 biofilms (setting [4]) is “remained unaffected”. Besides, the biofilm after treatment result in the series with PAO1ΔpslA biofilms (setting [5]) is “eradicated”. Moreover, in the series on PDO300 biofilms, the “effect in combination with ciprofloxacin” value is on record as “synergistic effects” and the biofilm after treatment result is reported as “slightly reduced”. Moreover, the metabolic stability entry in series [3] was “moderate degradation; also recorded: moderately degraded”. For the same compound, the half-life at 1 µM in series [3] (pH 7.4, no NRS, 30-min incubation, read-out: half-life of degradation, negative control (no NRS added)) stood at 1.72 h. For the same compound, in series [3] (pH 7.4, with NADPH regeneration system, 1.0 µM, 0.5 mg/mL microsomes, read-out: half-life of degradation), the half-life at 1 µM is 0.595 ± 0.035 h. The hepatic extraction in series [3] (calculated from microsomal half-life, fu = 1 assumed) is recorded as 0.61. Further, the “level of hepatic extraction” value in series [3] (classification system of Houston 1994) is on record as “intermediate”.
